According to ChEMBL document CHEMBL3988442, “University of Dundee, Small-Polar-MMV Screening Library” (2021):

Legend:
[1] = microbe, parasite or virus in culture; settings: Mycobacterium tuberculosis, 96 h, read-out: pIC50 (converted)
[2] = microbe, parasite or virus in culture; settings: Mycobacterium tuberculosis, 72 h, read-out: pIC50 (converted)

**Q.** Which IC50 [1] does the source give for `O=c1c2ccccc2nc2n1C(CSc1ccc(F)cc1)CN2` (stereo not drawn) here?
**A.** Its IC50 is > 50.1 µM.

**Q.** What about the IC50 [2] of the same compound?
**A.** Its IC50 is > 50.1 µM.

**Q.** For `O=C(c1ccnn1COc1ccc(Cl)cc1)N1CCCC1`, which IC50 [1] is on record?
**A.** Its IC50 is > 50.1 µM.

**Q.** What about the IC50 [2] of the same compound?
**A.** Its IC50 is > 50.1 µM.

**Q.** For `Cc1cccc(NC(=O)C(C)Oc2ccc3c(c2)OCO3)n1` (stereo not drawn), which IC50 [1] is on record?
**A.** Its IC50 is 5.27 µM.

**Q.** What about the IC50 [2] of the same compound?
**A.** Its IC50 is 16 µM.

**Q.** For `Cc1csc(NC(=O)C(C)Oc2ccc3c(c2)OCO3)n1` (stereo not drawn), which IC50 [1] is on record?
**A.** Its IC50 is 1.63 µM.

**Q.** And the IC50 [2]?
**A.** The IC50 was 30.5 µM.

**Q.** With `Cc1ccc(CNC(=O)c2ccc(F)cc2)o1` as the compound, how does the IC50 [1] read?
**A.** The IC50 was 47.3 µM.

**Q.** What about the IC50 [2] of the same compound?
**A.** Its IC50 is 19.6 µM.

**Q.** For `CCCn1nccc1C(=O)Nc1nc(C)c(C)s1`, which IC50 [1] is on record?
**A.** The IC50 was 47.4 µM.

**Q.** And the IC50 [2]?
**A.** Its IC50 is > 50.1 µM.

**Q.** Which IC50 [1] does the source give for `Nc1nnnn1NCc1cccc(Cl)c1Cl` here?
**A.** The IC50 was > 50.1 µM.

**Q.** And the IC50 [2]?
**A.** Its IC50 is > 50.1 µM.

**Q.** For `CCOc1ccc(N2CCCN=C2NC(=O)c2ccc(Cl)cc2)cc1`, which IC50 [1] is on record?
**A.** The IC50 was > 50.1 µM.

**Q.** And the IC50 [2]?
**A.** The IC50 was > 50.1 µM.

**Q.** For `CC1CCN(C(=O)C(C)Oc2ccc3c(c2)OCO3)CC1` (stereo not drawn), which IC50 [1] is on record?
**A.** Its IC50 is 38.9 µM.

**Q.** And the IC50 [2]?
**A.** Its IC50 is 30.1 µM.

**Q.** What does the source list for `Cn1nnc(NCc2ccc(-c3ccc(Cl)cc3)o2)n1`?
**A.** IC50 [1]: 8.3 µM; IC50 [2]: 42.2 µM

**Q.** For `Cn1nnc(NCc2ccc(-c3ccc(Br)cc3)o2)n1`, which IC50 [1] is on record?
**A.** The IC50 was 11.9 µM.

**Q.** What about the IC50 [2] of the same compound?
**A.** The IC50 was 25.3 µM.

**Q.** For `CCn1nnc(NCc2ccc(-c3ccc(Br)cc3)o2)n1`, which IC50 [1] is on record?
**A.** The IC50 was 14.1 µM.

**Q.** And the IC50 [2]?
**A.** Its IC50 is 44.3 µM.

**Q.** Which IC50 [1] does the source give for `O=c1c2cc3c(cc2nnn1Cc1ccccc1Cl)OCCO3` here?
**A.** Its IC50 is > 50.1 µM.

**Q.** What about the IC50 [2] of the same compound?
**A.** The IC50 was > 50.1 µM.

**Q.** What does the source list for `O=C1CNc2ncnc(N3CCN(c4ccccc4F)CC3)c2N1`?
**A.** IC50 [1]: > 50.1 µM; IC50 [2]: > 50.1 µM

**Q.** Which IC50 [1] does the source give for `CCS(=O)(=O)N1CCCCC1c1nc(C(C)C)no1` (stereo not drawn) here?
**A.** The IC50 was > 50.1 µM.

**Q.** And the IC50 [2]?
**A.** The IC50 was > 50.1 µM.

**Q.** Which IC50 [1] does the source give for `Cc1cc2[nH]c(O)nc2cc1NCc1ccc(F)cc1` here?
**A.** Its IC50 is > 50.1 µM.

**Q.** What about the IC50 [2] of the same compound?
**A.** The IC50 was 24.3 µM.

**Q.** What does the source list for `COc1ccc2nnc(C(=O)NCC3CCCC3)nc2c1`?
**A.** IC50 [1]: > 50.1 µM; IC50 [2]: 12.3 µM

**Q.** What does the source list for `O=C(NCC1CC1)c1nnc2ccc(Cl)cc2n1`?
**A.** IC50 [1]: 11.4 µM; IC50 [2]: 5.59 µM

**Q.** For `Cc1ccc2nnc(C(=O)NCC3CCCC3)nc2c1`, which IC50 [1] is on record?
**A.** The IC50 was 13.4 µM.

**Q.** And the IC50 [2]?
**A.** The IC50 was 10.4 µM.

**Q.** Which IC50 [1] does the source give for `NCc1n[nH]c(-c2ccc(Br)cc2)n1` here?
**A.** The IC50 was > 50.1 µM.

**Q.** And the IC50 [2]?
**A.** Its IC50 is 24.3 µM.

**Q.** Which results are given for `CCn1nc(C)c2nc(C)nc(NCCc3ccc(C)cc3)c21`?
**A.** IC50 [1]: 42.5 µM; IC50 [2]: 47.4 µM

**Q.** For `CCn1nc(C)c2nc(C)nc(NCCc3ccccc3)c21`, which IC50 [1] is on record?
**A.** The IC50 was > 50.1 µM.

**Q.** What about the IC50 [2] of the same compound?
**A.** The IC50 was 32.5 µM.

**Q.** Which results are given for `CCCc1nc(N(C)Cc2ccco2)c2c(n1)c(C)nn2CC`?
**A.** IC50 [1]: 12 µM; IC50 [2]: 25.2 µM

**Q.** With `CCCc1nc(N2CCCC(C)C2)c2c(n1)c(C)nn2CC` (stereo not drawn) as the compound, how does the IC50 [1] read?
**A.** The IC50 was > 50.1 µM.

**Q.** What about the IC50 [2] of the same compound?
**A.** The IC50 was 24.2 µM.

**Q.** What does the source list for `CCCc1nc(N2CCCCCC2)c2c(n1)c(C)nn2CC`?
**A.** IC50 [1]: 43.2 µM; IC50 [2]: 23.6 µM

**Q.** Which IC50 [1] does the source give for `CCCc1nc(N2CCCCC2)c2c(n1)c(C)nn2CC` here?
**A.** Its IC50 is 39.3 µM.

**Q.** What about the IC50 [2] of the same compound?
**A.** Its IC50 is 38.4 µM.

**Q.** What does the source list for `COc1ccc(CNc2nc(C3CC3)nc3c(C)nn(C)c23)cc1`?
**A.** IC50 [1]: 9.46 µM; IC50 [2]: 27.3 µM

**Q.** With `CCOC(=O)c1cc(C(C)(O)CCC=C(C)C)on1` (stereo not drawn) as the compound, how does the IC50 [1] read?
**A.** Its IC50 is 25.8 µM.

**Q.** And the IC50 [2]?
**A.** Its IC50 is 36.4 µM.

**Q.** What does the source list for `CC1CCCCN1C(=O)COCc1nc(-c2ccncc2)no1` (stereo not drawn)?
**A.** IC50 [1]: > 50.1 µM; IC50 [2]: > 50.1 µM

**Q.** Which results are given for `CCCNC(=O)c1cc(C(C)C)nc(N2CCCC2)n1`?
**A.** IC50 [1]: 41.7 µM; IC50 [2]: 11.5 µM

**Q.** What does the source list for `CC(C)c1cc(C(=O)NCCCN(C)C)nc(N2CCCC2)n1`?
**A.** IC50 [1]: 31.2 µM; IC50 [2]: 30 µM

**Q.** What does the source list for `CC(C)c1ccc(OCn2ccc(C(=O)N3CCCC3)n2)cc1`?
**A.** IC50 [1]: 24.5 µM; IC50 [2]: 26.5 µM

**Q.** Which IC50 [1] does the source give for `O=c1c(Cc2ccccc2)c(O)ccn1Cc1cccs1` here?
**A.** The IC50 was > 50.1 µM.

**Q.** And the IC50 [2]?
**A.** Its IC50 is > 50.1 µM.

**Q.** What does the source list for `c1ccc(-c2nc(CCNCc3ccncc3)co2)cc1`?
**A.** IC50 [1]: > 50.1 µM; IC50 [2]: > 50.1 µM

**Q.** What does the source list for `Cc1cncc(NCc2ccccc2N2CCOCC2)c1`?
**A.** IC50 [1]: 6.18 µM; IC50 [2]: 6.63 µM

**Q.** Which IC50 [1] does the source give for `CN(C)S(=O)(=O)c1ccc(F)c(NC(=O)COCC2CC2)c1` here?
**A.** The IC50 was > 50.1 µM.

**Q.** What about the IC50 [2] of the same compound?
**A.** Its IC50 is 10.3 µM.

**Q.** For `O=C(COCC1CC1)Nc1cc(S(=O)(=O)NC2CC2)ccc1F`, which IC50 [1] is on record?
**A.** Its IC50 is > 50.1 µM.

**Q.** And the IC50 [2]?
**A.** The IC50 was 45.8 µM.

**Q.** With `CC1CCN(S(=O)(=O)NC(C)Cc2ccco2)CC1` (stereo not drawn) as the compound, how does the IC50 [1] read?
**A.** The IC50 was > 50.1 µM.

**Q.** And the IC50 [2]?
**A.** The IC50 was > 50.1 µM.

**Q.** What does the source list for `Cc1nc(CSCCC(=O)Nc2cccc(N3CCNC3=O)c2)cs1`?
**A.** IC50 [1]: > 50.1 µM; IC50 [2]: > 50.1 µM

**Q.** With `COc1cccc(C(CO)NC(=O)Cc2ccc(F)c(Br)c2)c1` (stereo not drawn) as the compound, how does the IC50 [1] read?
**A.** The IC50 was > 50.1 µM.

**Q.** And the IC50 [2]?
**A.** The IC50 was > 50.1 µM.

**Q.** With `Cc1cccc(-c2ccc(C(=O)N3CCSCC3)c(=O)[nH]2)c1` as the compound, how does the IC50 [1] read?
**A.** Its IC50 is > 50.1 µM.

**Q.** What about the IC50 [2] of the same compound?
**A.** Its IC50 is 36.1 µM.

**Q.** Which IC50 [1] does the source give for `CC(C)Cc1noc(CNc2cc3c(cc2Cl)OCCCO3)n1` here?
**A.** The IC50 was 27.1 µM.

**Q.** And the IC50 [2]?
**A.** The IC50 was > 50.1 µM.

**Q.** Which results are given for `CCc1noc(CNc2cc3c(cc2Cl)OCCCO3)n1`?
**A.** IC50 [1]: > 50.1 µM; IC50 [2]: > 50.1 µM

**Q.** What does the source list for `Cc1ccc(C2CCCN2Cc2nc(-c3ccco3)no2)cc1` (stereo not drawn)?
**A.** IC50 [1]: 18.7 µM; IC50 [2]: 21.8 µM

**Q.** Which results are given for `N#CC1(NC(=O)COc2cc(Cl)cc(Cl)c2)CCSC1` (stereo not drawn)?
**A.** IC50 [1]: > 50.1 µM; IC50 [2]: > 50.1 µM

**Q.** For `Cc1ccc(OCC(=O)NC2(C#N)CCSCC2)cc1C`, which IC50 [1] is on record?
**A.** The IC50 was 2.04 µM.

**Q.** What about the IC50 [2] of the same compound?
**A.** The IC50 was 20.7 µM.

**Q.** Which IC50 [1] does the source give for `O=c1oc(-c2ccc(F)cc2)nn1CC1CCCCO1` (stereo not drawn) here?
**A.** Its IC50 is > 50.1 µM.

**Q.** What about the IC50 [2] of the same compound?
**A.** The IC50 was 0.609 µM.

**Q.** For `COc1ccc(CN(C(=O)C2CCCS2)c2ccncc2)cc1` (stereo not drawn), which IC50 [1] is on record?
**A.** The IC50 was > 50.1 µM.

**Q.** What about the IC50 [2] of the same compound?
**A.** The IC50 was > 50.1 µM.

**Q.** With `CN(CCc1nc(-c2cccc(Cl)c2)no1)CCn1cccn1` as the compound, how does the IC50 [1] read?
**A.** Its IC50 is 41.6 µM.

**Q.** What about the IC50 [2] of the same compound?
**A.** The IC50 was 4.75 µM.
